From patent publication US20230083973A1, “SUBSTITUTED CYCLOPROPYL-2,2'-BIP[…], ANALOGUES THEREOF, AND METHODS USING SAME” (priority 2019, published 2023)
Like-named read-outs stand apart in the source and are kept apart here.

Tested on: HBsAg
Assay: HBsAg assay: inhibition of HBsAg in HepG2.2.15 cells (chemiluminescence immunoassay of supernatant)
Assay type: cell-based, hepatitis B virus
Conditions: HBsAg in supernatant at day 6 after exposure to compound, 0.5% DMSO
Protocol: Inhibition of HBsAg was determined in HepG2.2.15 cells. Cells were maintained in culture medium containing 10% fetal calf serum, […], Glutamine, penicillin/streptomycin. Cells were seeded in 96-well collagen-coated plate at a density of 30,000 cells/well. Serially diluted compounds were added to cells next day at the final DMSO concentration of 0.5%. Cells were incubated with compounds for 2-3 days, after which medium was removed. Fresh medium containing compounds was added to cells for additional 3-4 days. At day 6 after exposure of compounds, supernatant was collected, the HBsAg immunoassay (microplate-based chemiluminescence immunoassay kits, CLIA, Autobio Diagnosics Co., Zhengzhou, China, Catalog # CL0310-2) was used to determine the level of HBsAg according to manufactory instruction. Dose-response curves were generated and the EC50 value (effective concentrations that achieved 50% inhibitory effect) were determined using XLfit software. In addition, cells were seeded at a density of 5,000 cells/well for determination of cell viability in the presence and absence of compounds by using CellTiter-Glo reagent (Promega).
Table 1 illustrates EC50 values obtained by the HBsAg assay for selected compounds.

[1] = Hepatitis B virus, HepG2.2.15, 144 h, read-out: sAg EC50, HepG2.2.15 cells
[2] = read-out: sAg EC50, HepG2.2.15 cells

SMILES	EC50 [1] [nM]	EC50 [2] [nM]
COCCCn1ncc2c([C@@H]3C[C@H]3c3cnc(-c4ncccn4)nc3)ccc(F)c21 (relative stereo) [Example 276, trans-4-(2-([2,2′-Bipyrimidin]-5-yl)cyclopropyl)-7-fluoro-1-(3-methoxypropyl)-1H-indazole]	10	
COCCCn1cc2c([C@@H]3C[C@H]3c3cnc(-c4ncccn4)nc3)ccc(F)c2n1 (relative stereo) [Example 277, trans-4-(2-([2,2′-Bipyrimidin]-5-yl)cyclopropyl)-7-fluoro-2-(3-methoxypropyl)-2H-indazole]	30	
Cc1nc2cc([C@@H]3C[C@H]3c3cnc(-c4ncccn4)nc3)ccc2s1 (relative stereo) [Example 278, trans-5-(2-([2,2′-Bipyrimidin]-5-yl)cyclopropyl)-2-methylbenzo[d]thiazole]	56	
COc1ccc(C2CC2c2cnc(-c3ncccn3)nc2)c(F)c1 (single isomer, unassigned) [Example 2, trans-5-(2-(2-Fluoro-4-methoxyphenyl)cyclopropyl)-2,2′-bipyrimidine]		230
COc1ccc(C2CC2c2cnc(-c3ncccn3)nc2)c(F)c1 (single isomer, unassigned) [Example 3, trans-5-(2-(2-Fluoro-4-methoxyphenyl)cyclopropyl)-2,2′-bipyrimidine]	190	
Fc1ccc(C2CC2c2ccnc(-c3ncccn3)n2)cc1F (single isomer, unassigned) [Example 5, trans-4-(2-(3,4-Difluorophenyl)cyclopropyl)-2,2′-bipyrimidine]	5000	
Fc1ccc(C2CC2c2ccnc(-c3ncccn3)n2)cc1F (single isomer, unassigned) [Example 6, trans-4-(2-(3,4-Difluorophenyl)cyclopropyl)-2,2′-bipyrimidine]		10000
COc1cc(F)ccc1C1CC1c1cnc(-c2ncccn2)nc1 (single isomer, unassigned) [Example 8, trans-5-(2-(4-Fluoro-2-methoxyphenyl)cyclopropyl)-2,2′-bipyrimidine]		450
COc1cc(F)ccc1C1CC1c1cnc(-c2ncccn2)nc1 (single isomer, unassigned) [Example 9, trans-5-(2-(4-Fluoro-2-methoxyphenyl)cyclopropyl)-2,2′-bipyrimidine]		85
COc1cc(C2CC2c2cnc(-c3ncccn3)nc2)ccc1F (single isomer, unassigned) [Example 10, trans-5-(2-(4-Fluoro-3-methoxyphenyl)cyclopropyl)-2,2′-bipyrimidine]		40
COc1cc(C2CC2c2cnc(-c3ncccn3)nc2)ccc1F (single isomer, unassigned) [Example 11, trans-5-(2-(4-Fluoro-3-methoxyphenyl)cyclopropyl)-2,2′-bipyrimidine]		730
COc1ccc(C2CC2c2cnc(-c3ncccn3)nc2)cc1F (single isomer, unassigned) [Example 12, trans-5-(2-(3-Fluoro-4-methoxyphenyl)cyclopropyl)-2,2′-bipyrimidine]	110	
COc1ccc(C2CC2c2cnc(-c3ncccn3)nc2)cc1F (single isomer, unassigned) [Example 13, trans-5-(2-(3-Fluoro-4-methoxyphenyl)cyclopropyl)-2,2′-bipyrimidine]		82
Fc1ccc(C2CC2c2cnc(-c3ncccn3)nc2)cc1F (single isomer, unassigned) [Example 14, trans-5-(2-(3,4-Difluorophenyl)cyclopropyl)-2,2′-bipyrimidine]		1000
Fc1ccc(C2CC2c2cnc(-c3ncccn3)nc2)cc1F (single isomer, unassigned) [Example 15, trans-5-(2-(3,4-Difluorophenyl)cyclopropyl)-2,2′-bipyrimidine]		76
COc1cc(C2CC2c2cnc(-c3ncccn3)nc2C)ccc1F (single isomer, unassigned) [Example 17, trans-5-(2-(4-Fluoro-3-methoxyphenyl)cyclopropyl)-4-methyl-2,2′-bipyrimidine]	650	
COc1cc(C2CC2c2cnc(-c3ncccn3)nc2C)ccc1F (single isomer, unassigned) [Example 18, trans-5-(2-(4-Fluoro-3-methoxyphenyl)cyclopropyl)-4-methyl-2,2′-bipyrimidine]		890
Fc1ccc(C2CC2c2cnc(-c3ncccn3)nc2)cc1N1CCCC1 (single isomer, unassigned) [Example 19, trans-5-(2-(4-Fluoro-3-(pyrrolidin-1-yl)phenyl)cyclopropyl)-2,2′-bipyrimidine]	39	
Fc1ccc(C2CC2c2cnc(-c3ncccn3)nc2)cc1N1CCCC1 (single isomer, unassigned) [Example 20, trans-5-(2-(4-Fluoro-3-(pyrrolidin-1-yl)phenyl)cyclopropyl)-2,2′-bipyrimidine]		23
COCCOc1cc(C2CC2c2cnc(-c3ncccn3)nc2)ccc1F (single isomer, unassigned) [Example 21, trans-5-(2-(4-Fluoro-3-(2-methoxyethoxy)phenyl)cyclopropyl)-2,2′-bipyrimidine]		490
COCCOc1cc(C2CC2c2cnc(-c3ncccn3)nc2)ccc1F (single isomer, unassigned) [Example 22, trans-5-(2-(4-Fluoro-3-(2-methoxyethoxy)phenyl)cyclopropyl)-2,2′-bipyrimidine]		59
COCCOc1ccc(C2CC2c2cnc(-c3ncccn3)nc2)cc1F (single isomer, unassigned) [Example 23, trans-5-(2-(3-Fluoro-4-(2-methoxyethoxy)phenyl)cyclopropyl)-2,2′-bipyrimidine]	95	
COCCOc1ccc(C2CC2c2cnc(-c3ncccn3)nc2)cc1F (single isomer, unassigned) [Example 24, trans-5-(2-(3-Fluoro-4-(2-methoxyethoxy)phenyl)cyclopropyl)-2,2′-bipyrimidine]		150
Fc1ccc(C2CC2c2cnc(-c3ncccn3)nc2)cc1OCC1CC1 (single isomer, unassigned) [Example 25, trans-5-(2-(3-(Cyclopropylmethoxy)-4-fluorophenyl)cyclopropyl)-2,2′-bipyrimidine]		270
Fc1ccc(C2CC2c2cnc(-c3ncccn3)nc2)cc1OCC1CC1 (single isomer, unassigned) [Example 26, trans-5-(2-(3-(Cyclopropylmethoxy)-4-fluorophenyl)cyclopropyl)-2,2′-bipyrimidine]		29
Fc1ccc(C2CC2c2cnc(-c3ncccn3)nc2)cc1OCC(F)F (single isomer, unassigned) [Example 27, trans-5-(2-(3-(2,2-Difluoroethoxy)-4-fluorophenyl)cyclopropyl)-2,2′-bipyrimidine]		630
Fc1ccc(C2CC2c2cnc(-c3ncccn3)nc2)cc1OCC(F)F (single isomer, unassigned) [Example 28, trans-5-(2-(3-(2,2-Difluoroethoxy)-4-fluorophenyl)cyclopropyl)-2,2′-bipyrimidine]		56
Fc1ccc(C2CC2c2cnc(-c3ncccn3)nc2)cc1Cl (single isomer, unassigned) [Example 29, trans-5-(2-(3-Chloro-4-fluorophenyl)cyclopropyl)-2,2′-bipyrimidine]		780
